According to US4201786A, “Water soluble pesticidal quaternary ammonium salt compounds” (Union Carbide Corporation, priority 1977, dated 1980):

Assays:
[1] = tested on: house flies (Musca domestica, L.); assay: Fly bait test; format: in vivo; parameters: key: A: Excellent control; B: Partial control; C: No control; conditions: 500 ppm, bait in 10 percent sugar solution, twenty four hours
Method: (§1) Suspensions of the test compounds were prepared by dissolving one gram of compound in 50 milliliters of acetone in which had been dissolved 0.1 gram (10 percent of the weight of compound) of an alkylphenoxy polyethoxyethanol surfactant, as an emulsifying or dispersing agent. The resulting solution was mixed into 150 milliliters of water to give roughly 200 milliliters of a suspension containing the compound in finely divided form. The thus-prepared stock suspension contained 0.5 percent by weight of test compound. The test concentrations in parts per million by weight employed in the tests described hereinbelow were obtained by appropriate dilutions of the stock suspension with water. The test procedures were as follows:
Four to six day old adult house flies (Musca domestica, L.) reared according to the specifications of the Chemical Specialties Manufacturing Association (Blue Book, McNair-Dorland Co., NY., 1954; pages 243-244, 261) under controlled conditions of 80°±5° F. and 50±5 percent relative humidity, were the test insects. The flies were immobilized by anesthetizing with carbon dioxide and twenty five immobilized individuals, males and females, were transferred to a cage consisting of a standard food strainer about five inches in diameter which was inverted over a wrapping-paper-covered surface. The test compounds were formulated by diluting the stock suspension with a 10 percent (by weight) sugar solution to give a suspension containing 500 parts of test compound per million parts of final formulation, by weight. Ten milliliters of the test formulation were added to a souffle cup containing a one inch square of an absorbent cotton pad. This bait cup was introduced and centered on the blotting paper under the food strainer prior to admitting the anesthetized flies. The caged flies were allowed to feed on the bait for twenty four hours, at a temperature of 80°±5° F. and the relative humidity of 50±5 percent.
(§2) In these test the pesticidal activity of the compounds against aphid, mite, Southern Armyworm, Mexican Bean Beetle, and house fly was rated as follows: […]

[2] = tested on: Mexican bean beetle (Epilachna varivestis, Muls.); assay: Mexican bean beetle leaf spray test; format: in vivo; parameters: key: A: Excellent control; B: Partial control; C: No control; conditions: 500 ppm, three days
Method: as §1
Fourth instar larvae of the Mexican bean beetle (Epilachna varivestis, Muls.) reared on Tendergreen bean plants at a temperature of 80°±5° and 50±5 percent relative humidity, were the test insects.
The test compounds were formulated by diluting the stock suspension with water to give a suspension containing 500 parts of test compound per million parts of final formulation. Potted Tendergreen bean plants of standard height and age were placed on a revolving turntable and sprayed with 100-110 milliliters of test compound formulation by use of a DeVilbiss spray gun set at 10 psig air pressure. This application, which lasted 25 seconds was sufficient to wet plants to run-off. As a control, 100-110 milliliters of a water-acetone-emulsifier solution containing no test compound were also sprayed on infested plants. When dry, the paired leaves were separated and each was placed in a 9 centimeter Petri dish lined with moistened filter paper. Five randomly selected larvae were introduced into each dish, and the dishes were closed. The closed dishes were labeled and held at a temperature of 80°±5° F. for three days. Although the larvae could easily consume the leaf within 24 to 48 hours, no more food was added. Larvae which were unable to move the length of the body, even upon stimulation, were considered dead.
as §2

[3] = tested on: southern armyworm (Prodenia Eridania, (Cram.)); assay: Southern armyworm leaf spray test; format: in vivo; parameters: key: A: Excellent control; B: Partial control; C: No control; conditions: 500 ppm, three days
Method: as §1
Larvae of the southern armyworm (Prodenia Eridania, (Cram.), reared on Tendergreen bean plants at a temperature of 80°±5° F. and relative humidity of 50±5 percent, constituted the test insects.
The test compounds were formulated by diluting the stock suspension with water to give a suspension containing 500 parts of test compound per million parts of final formulation. Potted Tendergreen bean plants of standard height and age were placed on a revolving turntable and sprayed with 100-110 milliliters of test compound formulation by use of a DeVilbiss spray gun set at 10 psig. air pressure.
This application which lasted 25 seconds was sufficient to wet plants to run-off. As a control, 100-110 milliliters of a water-acetone-emulsifier solution containing no test compound were also sprayed on infested plants. When dry, the paired leaves were separated and each one was placed in a 9 centimeter Petri dish lined with moistened filter paper. Five randomly selected larvae were introduced into each dish and the dishes were closed. The closed dishes were labeled and held at 80°-85° F. for three days. Although the larvae could easily consume the whole leaf within twenty-four hours, no more food was added. Larvae which were unable to move the length of the body, even upon stimulation by prodding, were considered dead. Percent mortality was recorded for various concentration levels.
as §2

[4] = tested on: bean aphid (Aphis fabae Scop.); assay: Bean aphid foliage spray test; format: in vivo; parameters: key: A: Excellent control; B: Partial control; C: No control; conditions: 500 ppm, 24 hour
Method: as §1
Adults and nymphal stages of the bean aphid (Aphis fabae Scop.) reared on potted dwarf nasturtium plants at 65°-70° F. and 50-70 percent relative humidity, constituted the test insects. For testing purposes, the number of aphids per pot was standardized to 100-150 by trimming plants containing excess aphids.
The test compounds were formulated by diluting the stock suspension with water to give a suspension containing 500 parts of test compound per million parts of final formulation.
The potted plants (one pot per compound tested) infested with 100-150 aphids, were placed on a revolving turntable and sprayed with 100-110 milliliters of test compound formulation by use of a DeVilbiss spray gun set at 40 psig. air pressure. This application, which lasted 25 seconds, was sufficient to wet the plants to run-off. As a control, 100-110 milliliters of a water-acetone-emulsifier solution containing no test compound were also sprayed on infested plants. After spraying, the pots were placed on their sides on a sheet of white standard mimeograph paper which had been previously ruled to facilitate counting. Temperature and humidity in the test room during the 24 hour holding period were 65°-70° F. and 50-70 percent, respectively. Aphids which fell onto the paper and were unable to remain standing after being uprighted were considered dead. Aphids remaining on the plants were observed closely for movement and those which were unable to move the length of the body upon stimulator by prodding were considered dead. Percent mortality was recorded for various concentration levels.
as §2

[5] = tested on: two-spotted mite (Tetranychus urticae Koch); assay: Mite foliage spray test; format: in vivo; parameters: key: A: Excellent control; B: Partial control; C: No control; conditions: 500 ppm, six days
Method: as §1
Adults and nymphal stages of the two-spotted mite (Tetranychus urticae Koch), reared on Tendergreen bean plants at 80±5 percent relative humidity, were the test organisms. Infested leaves from a stock culture were placed on the primary leaves of two bean plants six to eight inches in height, growing in a two- and-a-half inch clay pot. 150-200 mites, a sufficient number for testing, transferred from the excised leaves to the fresh plants in a period of twenty-four hours. Following the twenty-four hour transfer period, the excised leaves were removed from the infested plants. The test compounds were formulated by diluting the stock suspension with water to give a suspension with water to give a suspension containing 500 parts of test compound per million parts of final formulation. The potted plants (one pot per compound) were placed on a revolving turntable and sprayed with 100-110 milliliters of test compound formulation by use of a DeVilbiss spray gun set at 40 psig. air pressure. This application, which lasted for 25 seconds was sufficient to wet the plants to run-off. As a control, 100-110 milliliters of a water solution containing acetone and emulsifier in the same concentrations as the test compound formulation, but containing no test compound, were also sprayed on infested plants. The sprayed plants were held at 80±5 percent relative humidity for six days, after which a mortality count of motile forms was made. Microscopic examination for motile forms was made on the leaves of the test plants. Any individual which was capable of locomotion upon prodding, was considered living.
as §2

[6] = Water solubility (Table I); format: physicochemical; conditions: 25° C.

## CN(C(=O)C[N+]1(C)CCOCC1)C(=O)Oc1cccc2c1OC(C)(C)C2
[1]
  Pesticidal activity, Fly: A
[2]
  Pesticidal activity, Mexican Bean Beetle: A
[3]
  Pesticidal activity, Southern Armyworm: A
[4]
  Pesticidal activity, Aphid: A
[5]
  Pesticidal activity, Mite: B
[6]
  solubility: 140 mg/mL
